Literature values, collected in US8202545B2, “Nutraceutical for the prevention and treatment of cancers and diseases affecting the liver” (Canthao Corporation, priority 2003, dated 2012).

Assays:
[1] = test system: liver cancer
[2] = test system: recurrent and second primary hepatomas; details: treated group vs placebo 49%, P=0.04
[3] = test system: human hepatoma cell
[4] = test system: chronic hepatitis; details: chronic hepatitis patients
[5] = latest phase III clinical trial

Q: Which “median survival of patients treated” value [1, 5] does the source give for `COc1cccc2c1C(=O)c1c(O)c3c(c(O)c1C2=O)C[C@@](O)(C(=O)CO)C[C@@H]3O[C@H]1C[C@H](N)[C@H](O)[C@H](C)O1` [Doxorubicin] here?
A: 7 months

Q: What about the response rate [1, 5] of the same compound?
A: 11%

Q: What about the “patients in whom agent is effective” value ([1]; liver cancer patients) of the same compound?
A: less than 20%

Q: What about the median survival ([1]; liver cancer patients (Leung and Johnson 2001)) of the same compound?
A: less than 6 months

Q: With `CC(C)=CCC/C(C)=C/CC/C(C)=C/C=C/C(C)=C/C(=O)O` [acyclic retinoid, polyprenoic acid] as the compound, how does the “incidence of recurrent or new hepatoma” value [2] read?
A: 27%

Q: For `O=C1O[C@H]([C@@H](O)CO)C(O)=C1O` [ascorbic acid], which “AFP level in cells” value ([3]; decreased from 302) is on record?
A: 90

Q: What about the “cellular growth inhibition as compared to controls” value ([3]; human hepatoma cells) of the same compound?
A: approximately 60%

Q: Which “overall response rate (normalization of liver enzyme levels and reduction of viral load)” value [4] does the source give for interferon here?
A: roughly 50%
